Molecular target: T1, His-p53 Y220C (94-294) protein (Homo sapiens, UniProt P04637, Y220C)
T1 construct: His-p53 Y220C (94-294) protein
Assay: In vitro DNA binding assay (HTRF)
Format: biochemical
Conditions: % activation normalized to 2 μM Ref-1a high control

Row | EC50 | Compound
1 | 134 nM | COc1nc(P(C)(C)=O)ccc1NCC#Cc1sc2c(N[C@@H]3CCN(C4CCOCC4)C[C@@H]3F)cccc2c1CC(F)(F)F [Example 179, (5-((3-(7-(((3S,4R)-3-fluoro-1-(tetrahydro-2H-pyran-4-yl)piperidin-4-yl)amino)-3-(2,2,2-trifluoroethyl)benzo[b]thiophen-2-yl)prop-2-yn-1-yl)amino)-6-methoxypyridin-2-yl)dimethylphosphine oxide]
2 | 147 nM | CCP(=O)(CC)c1ccc(NCC#Cc2sc3c(NC4CCN(C5CCOCC5)CC4)cccc3c2CC(F)(F)F)c(OC)c1 [Example 155, diethyl(3-methoxy-4-((3-(7-((1-(tetrahydro-2H-pyran-4-yl)piperidin-4-yl)amino)-3-(2,2,2-trifluoroethyl)benzo[b]thiophen-2-yl)prop-2-yn-1-yl)amino)phenyl)phosphine oxide]
3 | 404 nM | COCCN1CC[C@@H](Nc2cccc3c(CC(F)(F)F)c(C#CCNc4ccc(P(C)(C)=O)cc4OC)sc23)[C@@H](F)C1 (racemic) [Example 88, (4-((3-(7-(((Z)-3-fluoro-1-(2-methoxyethyl)piperidin-4-yl)amino)-3-(2,2,2-trifluoroethyl)benzo[b]thiophen-2-yl)prop-2-yn-1-yl)amino)-3-methoxyphenyl)dimethylphosphine oxide]
4 | 38 nM | CCP(=O)(CC)c1ccc(NCC#Cc2sc3c(NC4CCN(C)CC4F)cccc3c2CC(F)(F)F)c(OC)c1 (centres unmarked) [Example 35, diethyl(4-((3-(7-(((Z)-3-fluoro-1-methylpiperidin-4-yl)amino)-3-(2,2,2-trifluoroethyl)benzo[b]thiophen-2-yl)prop-2-yn-1-yl)amino)-3-methoxyphenyl)phosphine oxide]
5 | 5130 nM | COc1cc(P(C)(C)=O)ccc1NCC#Cc1sc2c(NC3CCN(C)CC3F)cccc2c1-c1cncs1 (centres unmarked) [Example 116, (4-((3-(7-(((Z)-3-fluoro-1-methylpiperidin-4-yl)amino)-3-(thiazol-5-yl)benzo[b]thiophen-2-yl)prop-2-yn-1-yl)amino)-3-methoxyphenyl)dimethylphosphine oxide]
6 | 170 nM | CN1CCC(Nc2cccc3c(CC(F)(F)F)c(C#CCNc4ccc(S(C)(=O)=O)cc4OCC(F)(F)F)sc23)CC1 [Example 13, 1-methyl-N-(2-(3-((4-(methylsulfonyl)-2-(2,2,2-trifluoroethoxy)phenyl)amino)prop-1-yn-1-yl)-3-(2,2,2-trifluoroethyl)benzo[b]thiophen-7-yl)piperidin-4-amine]
7 | 479 nM | COc1cc(S(C)(=O)=O)ccc1NCC#Cc1sc2c(NC3CCN(C)CC3)ccc(F)c2c1CC(F)(F)F [Example 51, N-(4-fluoro-2-(3-((2-methoxy-4-(methylsulfonyl)phenyl)amino)prop-1-yn-1-yl)-3-(2,2,2-trifluoroethyl)benzo[b]thiophen-7-yl)-1-methylpiperidin-4-amine]
8 | 114 nM | CN1CCC(Nc2cccc3c(CC(F)(F)F)c(C#CCNc4ccc(S(C)(=O)=O)cc4OCF)sc23)CC1 [Example 11, N-(2-(3-((2-(fluoromethoxy)-4-(methylsulfonyl)phenyl)amino)prop-1-yn-1-yl)-3-(2,2,2-trifluoroethyl)benzo[b]thiophen-7-yl)-1-methylpiperidin-4-amine]
9 | 272 nM | COc1cc(P(C)(C)=O)ccc1NCC#Cc1sc2c(NC3CCN(C)CC3C#N)cccc2c1CC(F)(F)F (centres unmarked) [Example 90, 4-((2-(3-((4-(dimethylphosphoryl)-2-methoxyphenyl)amino)prop-1-yn-1-yl)-3-(2,2,2-trifluoroethyl)benzo[b]thiophen-7-yl)amino)-1-methylpiperidine-3-carbonitrile]
10 | 157 nM | COc1cc(S(C)(=O)=O)ccc1NCC#Cc1cc2c(N[C@H]3CC[C@@H](N4CC5(COC5)C4)CC3)cccc2n1CC(F)(F)F [Example 39, Cis-N-(4-(2-oxa-6-azaspiro[3.3]heptan-6-yl)cyclohexyl)-2-(3-((2-methoxy-4-(methylsulfonyl)phenyl)amino)prop-1-yn-1-yl)-1-(2,2,2-trifluoroethyl)-1H-indol-4-amine]
11 | 86 nM | COc1cc(C(=O)N2CCOCC2)ccc1NCC#Cc1sc2c(NC3CCN(C)CC3F)cccc2c1CC(F)(F)F (centres unmarked) [Example 50, (4-((3-(7-(((Z)-3-fluoro-1-methylpiperidin-4-yl)amino)-3-(2,2,2-trifluoroethyl)benzo[b]thiophen-2-yl)prop-2-yn-1-yl)amino)-3-methoxyphenyl)(morpholino)methanone]
12 | 173 nM | COc1cc(S(C)(=O)=O)ccc1NCC#Cc1sc2c(N[C@H]3CC[C@H](N4CC5(CCOCC5)C4)CC3)cccc2c1CC(F)(F)F [Example 18, Trans-N-(4-(7-oxa-2-azaspiro[3.5]nonan-2-yl)cyclohexyl)-2-(3-((2-methoxy-4-(methylsulfonyl)phenyl)amino)prop-1-yn-1-yl)-3-(2,2,2-trifluoroethyl)benzo[b]thiophen-7-amine]
13 | 220 nM | COc1nc(C(N)=O)ccc1NCC#Cc1sc2c(NC3CCN(C)CC3F)cccc2c1CC(F)(F)F (centres unmarked) [Example 63, 5-((3-(7-(((Z)-3-fluoro-1-methylpiperidin-4-yl)amino)-3-(2,2,2-trifluoroethyl)benzo[b]thiophen-2-yl)prop-2-yn-1-yl)amino)-6-methoxypicolinamide]
14 | 56 nM | COc1cc(S(=O)(=O)NCC(O)CO)ccc1NCC#Cc1sc2c(NC3CCN(C)CC3)cccc2c1CC(F)(F)F (centres unmarked) [Example 24, N-(2,3-dihydroxypropyl)-3-methoxy-4-((3-(7-((1-methylpiperidin-4-yl)amino)-3-(2,2,2-trifluoroethyl)benzo[b]thiophen-2-yl)prop-2-yn-1-yl)amino)benzenesulfonamide]
15 | 621 nM | COc1cc(S(C)(=O)=O)ccc1NCC#Cc1sc2c(NC3CC4(CCN(C)CC4)C3)cccc2c1CC(F)(F)F [Example 33, N-(2-(3-((2-methoxy-4-(methylsulfonyl)phenyl)amino)prop-1-yn-1-yl)-3-(2,2,2-trifluoroethyl)benzo[b]thiophen-7-yl)-7-methyl-7-azaspiro[3.5]nonan-2-amine]
16 | 284 nM | COc1cc(S(C)(=O)=O)ccc1NCC#Cc1sc2c(NC3CC4CC3CN4)cccc2c1CC(F)(F)F (centres unmarked) [Example 28, N-(2-(3-((2-methoxy-4-(methylsulfonyl)phenyl)amino)prop-1-yn-1-yl)-3-(2,2,2-trifluoroethyl)benzo[b]thiophen-7-yl)-2-azabicyclo[2.2.1]heptan-5-amine]
17 | 229 nM | COc1cc(P(C)(C)=O)ccc1NCC#Cc1sc2c(NC[C@@]34CCCN3C[C@H](F)C4)cccc2c1CC(F)(F)F [Example 70, (4-((3-(7-((((2R,7aS)-2-fluorotetrahydro-1H-pyrrolizin-7a(5H)-yl)methyl)amino)-3-(2,2,2-trifluoroethyl)benzo[b]thiophen-2-yl)prop-2-yn-1-yl)amino)-3-methoxyphenyl)dimethylphosphine oxide]
18 | 288 nM | COc1cc(S(=O)(=O)N2CCOCC2)ccc1NCC#Cc1sc2c(NC3CCN(C)CC3)cccc2c1CC(F)(F)F [Example 22, N-(2-(3-((2-methoxy-4-(morpholinosulfonyl)phenyl)amino)prop-1-yn-1-yl)-3-(2,2,2-trifluoroethyl)benzo[b]thiophen-7-yl)-1-methylpiperidin-4-amine]
19 | 100 nM | COc1cc(S(N)(=O)=O)ccc1NCC#Cc1sc2c(NC3CCN(C)CC3)cccc2c1CC(F)(F)F [Example 23, 3-methoxy-4-((3-(7-((1-methylpiperidin-4-yl)amino)-3-(2,2,2-trifluoroethyl)benzo[b]thiophen-2-yl)prop-2-yn-1-yl)amino)benzenesulfonamide]
20 | 129 nM | COc1cc(P(=O)(C2CC2)C2CC2)ccc1NCC#Cc1sc2c(N[C@H]3CCN(C)C[C@H]3F)cccc2c1CC(F)(F)F [Example 140, dicyclopropyl(4-((3-(7-(((3R,4S)-3-fluoro-1-methylpiperidin-4-yl)amino)-3-(2,2,2-trifluoroethyl)benzo[b]thiophen-2-yl)prop-2-yn-1-yl)amino)-3-methoxyphenyl)phosphine oxide]
21 | 87 nM | CN1CC[C@@H](Nc2cccc3c(CC(F)(F)F)c(C#CCNc4ccc(P(C)(C)=O)nc4C#N)sc23)[C@@H](F)C1 [Example 224, 6-(dimethylphosphoryl)-3-((3-(7-(((3S,4R)-3-fluoro-1-methylpiperidin-4-yl)amino)-3-(2,2,2-trifluoroethyl)benzo[b]thiophen-2-yl)prop-2-yn-1-yl)amino)picolinonitrile]
22 | 134 nM | COc1cc(S(C)(=O)=O)ccc1NCC#Cc1sc2c(NC3C4CNCC3CNC4)cccc2c1CC(F)(F)F (centres unmarked) [Example 78, N-(2-(3-((2-methoxy-4-(methylsulfonyl)phenyl)amino)prop-1-yn-1-yl)-3-(2,2,2-trifluoroethyl)benzo[b]thiophen-7-yl)-3,7-diazabicyclo[3.3.1]nonan-9-amine]
23 | 200 nM | COc1cc(S(C)(=O)=O)c(F)cc1NCC#Cc1sc2c(NC3CCN(C)CC3)cccc2c1CC(F)(F)F [Example 7, N-(2-(3-((5-fluoro-2-methoxy-4-(methylsulfonyl)phenyl)amino)prop-1-yn-1-yl)-3-(2,2,2-trifluoroethyl)benzo[b]thiophen-7-yl)-1-methylpiperidin-4-amine]
24 | 90 nM | COc1cc(C(=O)NO)ccc1NCC#Cc1sc2c(NC3CCN(C)CC3F)cccc2c1CC(F)(F)F (centres unmarked) [Example 58, 4-((3-(7-(((Z)-3-fluoro-1-methylpiperidin-4-yl)amino)-3-(2,2,2-trifluoroethyl)benzo[b]thiophen-2-yl)prop-2-yn-1-yl)amino)-N-hydroxy-3-methoxybenzamide]
25 | 38 nM | COc1cc(C(=O)N2CCN(C)CC2)ccc1NCC#Cc1sc2c(NC3CCN(C)CC3F)cccc2c1CC(F)(F)F (centres unmarked) [Example 49, (4-((3-(7-(((Z)-3-fluoro-1-methylpiperidin-4-yl)amino)-3-(2,2,2-trifluoroethyl)benzo[b]thiophen-2-yl)prop-2-yn-1-yl)amino)-3-methoxyphenyl)(4-methylpiperazin-1-yl)methanone]

Row | Compound | EC50
26 | CN1CCC(Nc2cccc3c(CC(F)(F)F)c(C#CCNc4ccc(S(N)(=O)=O)cc4)sc23)CC1 [Example 4, 4-((3-(7-((1-methylpiperidin-4-yl)amino)-3-(2,2,2-trifluoroethyl)benzo[b]thiophen-2-yl)prop-2-yn-1-yl)amino) benzenesulfonamide] | 99 nM

From patent publication US20240400591A1 (Jacobio Pharmaceuticals Co., Ltd., priority 2021, published 2024)
